Patent US7417025B2, “Use of poly-α2,8-sialic acid mimetic peptides to modulate NCAM functions” (Centre National de la Recherche Scientifique, priority 2002, dated 2008)
Entries after “also recorded” stand apart in the source; their conditions may differ.

Tests used:
30H12 antibody = assay: ELISA with peptide-BSA conjugate on 30H12-coated plates; assay type: binding; details: no competitor, FIG. 12A
Excerpt: FIG. 12A: ELISA using 30H12 anti-PSA monoclonal antibody-coated plates.
The specificity of the cyclic peptides was investigated in an ELISA assay using plates coated with 30H12 antibody, following the protocol as described above for the competitive ELISA, with the exception that the competitor was omitted.

[1] = tested on: 30H12 monoclonal antibody; assay: Competitive binding to PSA-NCAM expressing cells (30H12); design: dose or concentration left out as unconfirmed
Protocol: FIGS. 12B, 12C and 12D: competitive binding to PSA-NCAM expressing cells. B: pre-incubation of p65 (1 mM) or p66 (1 mM) with MenB anti-PSA antibody. C: 30H12 anti-PSA antibody without peptide. […]
(§1) The specificity of p65 and p66 peptides was tested in a competition assay using anti-PSA antibodies and PSA-NCAM expressing cells. […] The binding specificity was examined in greater detail by testing peptide recognition by another anti-PSA mononclonal antibody (MenB). […] Thus, p65 and p66 mimotopes appear to be specific for a unique (idiotypic) determinant.

MenB anti-PSA antibody = assay: Competitive binding to PSA-NCAM expressing cells (MenB)
Protocol: FIGS. 12B, 12C and 12D: competitive binding to PSA-NCAM expressing cells. B: pre-incubation of p65 (1 mM) or p66 (1 mM) with MenB anti-PSA antibody. C: 30H12 anti-PSA antibody without peptide. D: pre-incubation of p65 (1 mM) or p66 (1 mM) with 30H12 anti-PSA antibody.
as §1

[2] = tested on: Mouse dorsal root ganglion explants (E13.5); assay: Dorsal root ganglion explant culture: neurite outgrowth and fasciculation; assay type: cell-based
Protocol: E13.5 DRGs were dissected out from mice embryos in HBSS medium and seeded on glass coverslips coated with polylysine or with peptides linked to BSA. Explants were cultured in the presence or the absence of the peptides under soluble form (40 μM) in two ml of neurobasal medium (DMEM/Ham's F12, 3:1 (V/V), GIBCO, buffered with 20 mM Hepes), supplemented as described in Faivre-Sarrailh et al., J. Cell. Sci., 1999, 18, 3015-3027 and Chazal et al., J.Neurosci., 2000, 20, 1446-1457.
Fixed DRGs (Dorsal Root ganglia) explants and sections were incubated at 4° C. respectively 2 hr with an anti-neurofilament (SMI-31, dilution 1:800, STERNBERGER MONOCLONALS) and overnight with an anti-PSA antibody (dilution 1:200, Rougon et al, J. Cell. Biol., 1986, 103, 2429-2437). Revelation was performed by 1 hr incubation with the corresponding fluorescent-labeled secondary antibody (Goat anti-mouse IgM or IgG conjugated with texas red, IMMUNOTECH)
(§2) After 48 h in culture, explants were examining directly (SVZ) or after overnight fixation with a 4% paraformaldehyde solution in PBS and immunostaining (DRGs). Observation was done using 2, 5×, 5×, 10× and 32× objectives (Axiovert 35M, ZEISS). Images were collected with a video camera (Cool View, PHOTONIC SCIENCE) and analysed using image-processing software (Visiolab1000, BIOCOM). Mean migration distance (calculated on five different experiments, including at least five explants per condition) or mean length of the longest neurite (calculated on two different experiments, including at least eight explants per condition), was the distance in micrometers between the explant edge and the border of the cell migration front. Four measurements were performed for each explant. The significance of the differences between the control and the different experimental conditions was calculated by Student's t test.
Mouse dorsal root ganglion explants (E13.5) were cultured in the presence of p65 and p66 cyclic mimetic peptides, either in soluble form or coated on the microplates as BSA conjugates. Cells cultured in the absence of peptides or in the presence of reverse peptides (coated or in soluble form) were used as controls.

chick retina axons = assay: Intravitreal injection in chick embryo, retinal whole mount: axon fasciculation and guidance in vivo; details: injected into chicken embryo eyes at E3, retina observed at E9
Protocol: The dashed rectangle indicates the area from which photographs were taken. Arrows point toward the optic fissure. Axons of E9 chick retina injected at E3 with the reverse peptide (C,F) or the p65 peptide (D,G,E,H). Arrowheads show examples of axons that leave their fascicle and run perpendicularly to it.
Injections were performed as described in Monnier et al. (Developmental Biology, 2001, 229, 1-14). Briefly, a 2×2 cm window was cut into the shell over E3 chick embryos. One μl of Fast green with 10 mM of p65 or reverse peptide was injected into the right eye vitreous body using a capillary. After a five-days incubation at 37° C., (E8) retinae were dissected, spread onto nitrocellulose filters (MILIPORE), and fixed with 4% paraformaldehyde solution in PBS. Two small DiI (1,1′-dioctadecyl-3,3,3′,3′-tetramethylindocarbocyanine perchlorate) crystals were applied dorsally to the optic fissure. Retinae were stored in the dark at 37° C. for 10 days until the dye reached the axonal growth cones in the fissure, mounted in glycerol:PBS (9:1, v:v) and analysed using confocal microscopy.

[3] = tested on: subventricular zone explants (neuronal precursors); assay: Subventricular zone (SVZ) explant culture: cell migration in vitro; assay type: cell-based, mouse
Protocol: Cultures of SVZ explants were performed as described in Chazal et al., precited. Briefly, 1-day-old mice were killed by rapid decapitation. Brains were dissected out and sectionned by Vibratome (Leica). The SVZ from the lateral wall of the anterior lateral ventricle horn was dissected out in HBSS medium (LIFE TECHNOLOGIES) and cut into 200-300 μm diameter explants. The explants were mixed with Matrigel (BECKTON DICKINSON) and cultured in four-well dishes. After polymerisation, the gel was overlaid with 400 μl of serum-free medium containing B-27 supplement (LIFE TECHNOLOGIES), in the presence or the absence of 40 μM of peptides (p65, p66, reverse p65, p21 or p22) and 70 U of Endo N per milliliter.
as §2

[4] = tested on: subventricular zone explants (neuronal precursors); assay: as above; assay type: cell-based, mouse; details: 0.4 μM peptide
[5] = peptide in coated form (BSA conjugate)
[6] = peptide in soluble form (40 μM), versus controls

CSKIASMETGCG [p66]
Binding of cyclic peptides to 30H12 antibody in ELISA (30H12 antibody): highest binding | Binding of 30H12 monoclonal antibody to PSA-NCAM expressing cells after pre-incubation with peptide [1]: prevented its binding | Recognition of PSA-NCAM by MenB after pre-incubation with peptide (MenB anti-PSA antibody; FIG. 12C): did not prevent recognition of PSA-NCAM | Antibody specificity of peptide binding (30H12 versus MenB) (MenB anti-PSA antibody; in words): bind only to 30H12 | Fasciculation [2, 5]: opposite effect on fasciculation | Neurite outgrowth [2, 5]: no effect on neurite outgrowth; also recorded: no significant increase | Axonal growth [2, 6]: significant increase in axonal growth | Fasciculation of axon bundles [2, 6]: clear defasciculation of axon bundles | Increase of neurite outgrowth compared to the controls ([2]; peptide in soluble form, mean length of the longest neurite): 21% | Axon guidance and fasciculation in retina in vivo (chick retina axons): axons guidance and fasciculation defects | Rate of migration of the neuronal precursors and chain-like arrangement ([3]; SVZ explants in Matrigel, FIG. 4): increases the rate of migration | PSA-dependence of the migration effect ([3]; with endo N treatment): abolished by endo N treatment | Increase in the rate of migration of the neuronal precursors compared with the control without peptide [4]: +26%
